Source: patent publication US8916557B2, “Substituted 4-Aryl-N-phenyl-1,3,5-triazin-2-amines” (Bayer Intellectual Property GmbH, priority 2011, dated 2014)

Key:
CDK9/CycT1 = target: T1, CDK9/CycT1 (Homo sapiens, UniProt P50750); assay: CDK9/CycT1 kinase assay (TR-FRET); type: biochemical; conditions: Method 1, 10 μM ATP
T1 construct: Recombinant full-length His-tagged human CDK9 and CycT1; His; purchased Invitrogen PV4131; host or cells: insect cells
Excerpt: 1. CDK9/CycT1 Kinase Assay:
CDK9/CycT1-inhibitory activity of compounds of the present invention was quantified employing the CDK9/CycT1 TR-FRET assay as described in the following paragraphs:
Recombinant full-length His-tagged human CDK9 and CycT1, expressed in insect cells and purified by Ni-NTA affinity chromatography, were purchased from Invitrogen (Cat. No PV4131). As substrate for the kinase reaction biotinylated peptide biotin-Ttds-[…] (C-terminus in amid form) was used which can be purchased e.g. form the company JERINI Peptide Technologies (Berlin, Germany). For the assay 50 nl of a 100fold concentrated solution of the test compound in DMSO was pipetted into a black low volume 384well microtiter plate (Greiner Bio-One, Frickenhausen, Germany), 2 μl of a solution of CDK9/CycT1 in aqueous assay buffer [50 mM Tris/HCl pH 8.0, 10 mM MgCl2, 1.0 mM dithiothreitol, 0.1 mM sodium ortho-vanadate, 0.01% (v/v) Nonidet-P40 (Sigma)] were added and the mixture was incubated for 15 min at 22° C. to allow pre-binding of the test compounds to the enzyme before the start of the kinase reaction. Then the kinase reaction was started by the addition of 3 μl of a solution of adenosine-tri-phosphate (ATP, 16.7 μM=>final conc. in the 5 μl assay volume is 10 μM) and substrate (1.67 μM=>final conc. in the 5 μl assay volume is 1 μM) in assay buffer and the resulting mixture was incubated for a reaction time of 25 min at 22° C. The concentration of CDK9/CycT1 was adjusted depending of the activity of the enzyme lot and was chosen appropriate to have the assay in the linear range, typical concentrations were in the range of 1 μg/ml. The reaction was stopped by the addition of 5 μl of a solution of TR-FRET detection reagents (0.2 μM streptavidine-XL665 [Cisbio Bioassays, Codolet, France] and 1 nM anti-RB(pSer807/pSer811)-antibody from BD Pharmingen [#558389] and 1.2 nM LANCE EU-W1024 labeled anti-mouse IgG antibody [Perkin-Elmer, product no. AD0077]) in an aqueous EDTA-solution (100 mM EDTA, 0.2% (w/v) bovine serum albumin in 100 mM HEPES/NaOH pH 7.0).
(§1) The resulting mixture was incubated 1 h at 22° C. to allow the formation of complex between the phosphorylated biotinylated peptide and the detection reagents. Subsequently the amount of phosphorylated substrate was evaluated by measurement of the resonance energy transfer from the Eu-chelate to the streptavidine-XL. Therefore, the fluorescence emissions at 620 nm and 665 nm after excitation at 350 nm was measured in a HTRF reader, e.g. a Rubystar (BMG Labtechnologies, Offenburg, Germany) or a Viewlux (Perkin-Elmer). The ratio of the emissions at 665 nm and at 622 nm was taken as the measure for the amount of phosphorylated substrate.

CDK2/CycE = target: T2, CDK2/CycE (Homo sapiens, UniProt P24941); assay: CDK2/CycE kinase assay (TR-FRET); type: biochemical; conditions: Method 2, 10 μM ATP
T2 construct: GST; purchased ProQinase GmbH (Freiburg, Germany); host or cells: insect cells (Sf9)
Excerpt: 2. CDK2/CycE Kinase Assay:
CDK2/CycE-inhibitory activity of compounds of the present invention was quantified employing the CDK2/CycE TR-FRET assay as described in the following paragraphs:
Recombinant fusion proteins of GST and human CDK2 and of GST and human CycE, expressed in insect cells (Sf9) and purified by Glutathion-Sepharose affinity chromatography, were purchased from ProQinase GmbH (Freiburg, Germany). As substrate for the kinase reaction biotinylated peptide biotin-Ttds-[…] (C-terminus in amid form) was used which can be purchased e.g. form the company JERINI Peptide Technologies (Berlin, Germany).
For the assay 50 nl of a 100fold concentrated solution of the test compound in DMSO was pipetted into a black low volume 384well microtiter plate (Greiner Bio-One, Frickenhausen, Germany), 2 μl of a solution of CDK2/CycE in aqueous assay buffer [50 mM Tris/HCl pH 8.0, 10 mM MgCl2, 1.0 mM dithiothreitol, 0.1 mM sodium ortho-vanadate, 0.01% (v/v) Nonidet-P40 (Sigma)] were added and the mixture was incubated for […] at 22° C. to allow pre-binding of the test compounds to the enzyme before the start of the kinase reaction. Then the kinase reaction was started by the addition of 3 μl of a solution of adenosine-tri-phosphate (ATP, 16.7 μM=>final conc. in the 5 it assay volume is 10 μM) and substrate (1.25 μM=>final conc. in the 5 it assay volume is 0.75 μM) in assay buffer and the resulting mixture was incubated for a reaction time of […] at 22° C. The concentration of CDK2/CycE was adjusted depending of the activity of the enzyme lot and was chosen appropriate to have the assay in the linear range, typical concentrations were in the range of 130 ng/ml. The reaction was stopped by the addition of 5 it of a solution of TR-FRET detection reagents (0.2 μM streptavidine-XL665 [Cisbio Bioassays, Codolet, France] and 1 nM anti-RB(pSer807/pSer811)-antibody from BD Pharmingen [#558389] and 1.2 nM LANCE EU-W1024 labeled anti-mouse IgG antibody [Perkin-Elmer, product no. AD0077]) in an aqueous EDTA-solution (100 mM EDTA, 0.2% (w/v) bovine serum albumin in 100 mM HEPES/NaOH pH 7.0).
as §1, with “TR-FRET” for “HTRF”

[1] = test system: HeLa human cervical tumour cells; assay: Proliferation assay (crystal violet), HeLa; type: cell-based; conditions: read-out: Inhibition of HeLa cell proliferation

T1 sequence (P50750 whole entry): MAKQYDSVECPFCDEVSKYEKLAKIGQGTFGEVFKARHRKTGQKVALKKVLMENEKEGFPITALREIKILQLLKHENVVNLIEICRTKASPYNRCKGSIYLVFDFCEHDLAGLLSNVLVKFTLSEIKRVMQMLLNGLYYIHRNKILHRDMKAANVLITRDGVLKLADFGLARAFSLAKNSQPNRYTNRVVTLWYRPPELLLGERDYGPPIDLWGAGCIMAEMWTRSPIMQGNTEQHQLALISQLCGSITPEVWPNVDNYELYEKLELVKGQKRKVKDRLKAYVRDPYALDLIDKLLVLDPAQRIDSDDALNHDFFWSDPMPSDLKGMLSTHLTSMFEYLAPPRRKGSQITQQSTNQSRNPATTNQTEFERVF
T1 sequence (O60563 whole entry partner): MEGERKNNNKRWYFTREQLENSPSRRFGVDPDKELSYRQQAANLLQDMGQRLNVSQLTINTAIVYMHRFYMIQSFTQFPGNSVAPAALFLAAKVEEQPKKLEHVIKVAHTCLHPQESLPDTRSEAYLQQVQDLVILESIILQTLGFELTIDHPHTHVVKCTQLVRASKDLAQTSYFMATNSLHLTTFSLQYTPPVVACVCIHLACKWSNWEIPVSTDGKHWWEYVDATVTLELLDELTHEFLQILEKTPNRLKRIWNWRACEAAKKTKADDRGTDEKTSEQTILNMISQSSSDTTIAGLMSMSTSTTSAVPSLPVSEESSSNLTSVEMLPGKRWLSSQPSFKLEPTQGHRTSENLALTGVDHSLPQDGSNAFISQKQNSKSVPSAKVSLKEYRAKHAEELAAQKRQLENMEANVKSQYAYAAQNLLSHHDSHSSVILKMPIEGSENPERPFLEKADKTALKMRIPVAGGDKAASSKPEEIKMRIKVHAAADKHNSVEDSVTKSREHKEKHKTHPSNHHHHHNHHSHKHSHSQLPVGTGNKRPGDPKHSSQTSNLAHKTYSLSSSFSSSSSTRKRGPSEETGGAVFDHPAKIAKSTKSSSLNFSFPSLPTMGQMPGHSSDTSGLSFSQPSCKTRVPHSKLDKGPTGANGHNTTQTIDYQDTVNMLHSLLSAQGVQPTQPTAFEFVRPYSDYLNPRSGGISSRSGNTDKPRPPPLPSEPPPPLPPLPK

Row | SMILES | IC50 (CDK9/CycT1) [µM] | IC50 (CDK2/CycE) [µM] | IC50 [1] [µM]
1 | COc1cc(F)ccc1-c1ncnc(Nc2cccc(CS(=O)(=O)C3CCCC3)c2)n1 [Example 36, N-{3-[(Cyclopentylsulfonyl)methyl]phenyl}-4-(4-fluoro-2-methoxyphenyl)-1,3,5-triazin-2-amine] | 0.017 | 0.88 | 1
2 | CS(=O)(=O)Cc1cccc(Nc2ncnc(-c3ccc(F)cc3OC3CC3)n2)c1 [Example 41, 4-[2-(Cyclopropyloxy)-4-fluorophenyl]-N-{3-[(methylsulfonyl)methyl]phenyl}-1,3,5-triazin-2-amine] | 0.029 | 1 | 0.9
3 | CS(=O)(=O)Cc1cccc(Nc2ncnc(-c3ccc(F)cc3OCCC3CC3)n2)c1 [Example 48, 4-[2-(2-Cyclopropylethoxy)-4-fluorophenyl]-N-{3-[(methylsulfonyl)methyl]phenyl}-1,3,5-triazin-2-amine] | 0.029 | 1.3 | 1
4 | COCCOc1cc(F)ccc1-c1ncnc(Nc2cccc(CS(C)(=O)=O)c2)n1 [Example 50, 4-[4-Fluoro-2-(2-methoxyethoxy)phenyl]-N-{3-[(methylsulfonyl)methyl]-phenyl}-1,3,5-triazin-2-amine] | 0.038 | 0.49 | 2.9
5 | CC(C)CCOc1cc(F)ccc1-c1ncnc(Nc2cccc(CS(C)(=O)=O)c2)n1 [Example 52, 4-[4-Fluoro-2-(3-methylbutoxy)phenyl]-N-{3-[(methylsulfonyl)methyl]phenyl}-1,3,5-triazin-2-amine] | 0.016 | 4 | 1.2
6 | CS(=O)(=O)Cc1cccc(Nc2ncnc(-c3ccc(F)cc3OCCC3CCCC3)n2)c1 [Example 53, 4-[2-(2-Cyclopentylethoxy)-4-fluorophenyl]-N-{3-[(methylsulfonyl)methyl]phenyl}-1,3,5-triazin-2-amine] | 0.016 | 0.95 | 1.3
7 | CS(=O)(=O)Cc1cccc(Nc2ncnc(-c3ccc(F)cc3OCCCF)n2)c1 [Example 54, 4-[4-Fluoro-2-(3-fluoropropoxy)phenyl]-N-{3-[(methylsulfonyl)methyl]phenyl}-1,3,5-triazin-2-amine] | 0.029 | 1.5 | 1.3
8 | CS(=O)(=O)Cc1cccc(Nc2ncnc(-c3ccc(F)cc3OCC3CCC3)n2)c1 [Example 56, 4-[2-(Cyclobutylmethoxy)-4-fluorophenyl]-N-{3-[(methylsulfonyl)methyl]phenyl}-1,3,5-triazin-2-amine] | 0.027 | 1.4 | 1.1
9 | CC(C)COc1cc(F)ccc1-c1ncnc(Nc2cccc(CS(C)(=O)=O)c2)n1 [Example 58, 4-[4-Fluoro-2-(2-methylpropoxy)phenyl]-N-{3-[(methylsulfonyl)methyl]phenyl}-1,3,5-triazin-2-amine] | 0.046 | 5.1 | 1.7

Now those with a lower IC50 (CDK9/CycT1), led by results:

Row | IC50 (CDK9/CycT1) [µM] | IC50 (CDK2/CycE) [µM] | IC50 [1] [µM] | SMILES
10 | 0.015 | 2.7 | 2.8 | CCCCCCOc1cc(F)ccc1-c1ncnc(Nc2cccc(CS(C)(=O)=O)c2)n1 [Example 46, 4-[4-Fluoro-2-(hexyloxy)phenyl]-N-{3-[(methylsulfonyl)methyl]phenyl}-1,3,5-triazin-2-amine]
11 | 0.012 | 0.86 | 1.1 | CCCOc1cc(F)ccc1-c1ncnc(Nc2cccc(CS(C)(=O)=O)c2)n1 [Example 43, 4-(4-Fluoro-2-propoxyphenyl)-N-{3-[(methylsulfonyl)-methyl]phenyl}-1,3,5-triazin-2-amine]
12 | 0.011 | 0.64 | 1.2 | CC1(COc2cc(F)ccc2-c2ncnc(Nc3cccc(CS(C)(=O)=O)c3)n2)CC1 [Example 49, 4-{4-Fluoro-2-[(1-methylcyclopropyl)methoxy]phenyl}-N-{3-[(methylsulfonyl)-methyl]phenyl}-1,3,5-triazin-2-amine]
13 | 0.009 | 2.5 | 1.1 | CC(C)S(=O)(=O)Cc1cccc(Nc2ncnc(-c3ccccc3OCc3ccc(F)cc3)n2)c1 [Example 37, 4-{2-[(4-Fluorobenzyl)oxy]phenyl}-N-{3-[(prop-2-ylsulfonyl)methyl]phenyl}-1,3,5-triazin-2-amine]
14 | 0.009 | 0.19 | 0.28 | COc1cc(F)ccc1-c1ncnc(Nc2cc(Cl)cc(CS(C)(=O)=O)c2)n1 [Example 39, N-{5-Chloro-3-[(methylsulfonyl)methyl]phenyl}-4-(4-fluoro-2-methoxyphenyl)-1,3,5-triazin-2-amine]
15 | 0.007 | 2.4 | 1.1 | CS(=O)(=O)Cc1cccc(Nc2ncnc(-c3ccc(F)cc3OCC3CCCCC3)n2)c1 [Example 57, 4-[2-(Cyclohexylmethoxy)-4-fluorophenyl]-N-{3-[(methylsulfonyl)methyl]phenyl}-1,3,5-triazin-2-amine]
16 | 0.006 | 0.32 | 0.84 | CC(C)S(=O)(=O)Cc1cccc(Nc2ncnc(-c3cc(F)ccc3OCc3cccc(F)c3)n2)c1 [Example 38, 4-{5-Fluoro-2-[(3-fluorobenzyl)oxy]phenyl}-N-{3-[(prop-2-ylsulfonyl)methyl]phenyl}-1,3,5-triazin-2-amine]
17 | 0.005 | 1.2 | 1 | CC(C)CCCOc1cc(F)ccc1-c1ncnc(Nc2cccc(CS(C)(=O)=O)c2)n1 [Example 47, 4-{4-Fluoro-2-[(4-methylpentyl)oxy]phenyl}-N-{3-[(methylsulfonyl)-methyl]phenyl}-1,3,5-triazin-2-amine]
18 | 0.004 | 0.99 | 1 | CCCCCOc1cc(F)ccc1-c1ncnc(Nc2cccc(CS(C)(=O)=O)c2)n1 [Example 45, 4-[4-Fluoro-2-(pentyloxy)phenyl]-N-{3-[(methylsulfonyl)-methyl]phenyl}-1,3,5-triazin-2-amine]
